Data set [1] has as its target diacylglycerol:acyltransferase. The data set can be described thus: Inhibitory action to rat-originated diacylglycerol:acyltransferase (rat liver microsomal fraction). It is filed as biochemical. The conditions noted are these: 23° C., 15 minutes. The protocol:
The activity of diacylglycerol:acyltransferase was determined by the modified method of Mayorek and Bar-Tana [J. Biol. Chem., 260, 6528-6532 (1985)].
Thus, a microsomal fraction prepared from rat liver was used as the enzyme source. To a 175 mM Tris-HCl buffer (pH 8.0) containing 8 mM of MgCl2, 1 mg/ml of bovine, serum albumin and 2.5 mM of diisopropyl fluorophosphate, there were added 0.75 mM of dioleoylglycerol and 30 μM of [1-^14C]-palmitoyl-CoA (0.02 μCi) and the total volume was adjusted to 200 μl, whereupon the enzymatic reaction mixture was incubated at 23° C. for 15 minutes. The total lipids were extracted with chloroform/methanol mixture and each lipid was separated by a TLC (with Kieselgel GF254 and a developer of petroleum ether/diethyl ether/acetic acid of 80/20/1), followed by determination of the radioactivity of the triacylglycerol fraction using RADIOSCANNER (of the firm AMBIS System Inc.) to determine the diacylglycerol:acyltransferase activity.

The subject of data set [2] is triacylglycerol formation in Raji cell originated from human Burkitt lymphoma. Briefly: Inhibitory action to formation of triacylglycerol in human-originated cells (Raji cell). It is filed as cell-based. The settings on record: 0.5 h, [1-14C]-oleic acid, 37° C., 30 minutes, read-out: drug concentration corresponding to 50% inhibition of triacylglycerol formation. The procedure:
The assessment of influence of the substances on the triacylglycerol formation was performed in accordance with the method of Tomoda et al [J. Biol. Chem., 266, 4214-4219 (1991)] using human-originated cells (Raji cell originated from human Burkitt lymphoma).
A Raji cell dispersion of 2.7×10^6 cells per milliliter containing 0.36 nM [1-^14C]-oleic acid (0.02 μCi) in the presence or absence of the; substance was filled up to a total volume 200 μl, whereupon the reaction was caused at 37° C. for 30 minutes. The total lipids were extracted with chloroform/methanol (2/1) mixture. The subsequent procedures were carried out in the same manner as in the above experiment (1) “inhibitive action to rat-originated diacylglycerol-acyltransferase”.
The calculation of the drug concentration corresponding to 50% inhibition of triacylglycerol formation gives the values of 10 μg/ml for the KF-1040 substance A and 10 μg/ml for the KF-1040 substance B.

In data set [3] the target is T1, acid sphingomyelinase originated from human placenta (Homo sapiens, UniProt P17405).
T1 construct: an acid sphingomyelinase originated from human placenta (a product of the firm Sigma) was used as the enzyme source; purchased Sigma; host or cells: human placenta
T1 sequence (P17405 47-631): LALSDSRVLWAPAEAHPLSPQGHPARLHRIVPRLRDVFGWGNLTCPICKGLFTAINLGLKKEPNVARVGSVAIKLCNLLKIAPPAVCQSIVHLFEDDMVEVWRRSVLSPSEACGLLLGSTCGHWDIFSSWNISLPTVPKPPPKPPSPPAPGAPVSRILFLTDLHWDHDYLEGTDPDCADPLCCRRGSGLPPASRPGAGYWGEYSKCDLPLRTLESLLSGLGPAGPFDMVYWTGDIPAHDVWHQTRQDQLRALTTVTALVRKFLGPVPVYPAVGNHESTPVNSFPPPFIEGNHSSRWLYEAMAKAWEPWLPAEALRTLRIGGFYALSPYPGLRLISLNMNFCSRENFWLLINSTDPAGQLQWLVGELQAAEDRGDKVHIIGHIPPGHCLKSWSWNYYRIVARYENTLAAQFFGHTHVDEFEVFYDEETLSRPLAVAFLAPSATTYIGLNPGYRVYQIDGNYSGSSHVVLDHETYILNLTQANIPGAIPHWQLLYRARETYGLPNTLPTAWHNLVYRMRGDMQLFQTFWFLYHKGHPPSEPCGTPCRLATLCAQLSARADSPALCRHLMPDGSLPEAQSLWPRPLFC
The data set can be described thus: Influence on human placenta-originated acid sphingomyelinase. It is filed as biochemical. The conditions noted are these: human placenta enzyme (Sigma), pH 5.0, 37° C., 30 minutes; read-out: concentration corresponding to 50% inhibition of acid sphingomyelinase (converted). The protocol:
The assessment of influence of the substances on human placenta-originated acidic sphingomyelinase was performed in accordance with the method of Jones et al [Biochem. Journal, 195, 373-382 (1981)] with partial modification.
Thus, an acid sphingomyelinase originated from human placenta (a product of the firm Sigma) was used as the enzyme source and thereto were added 250 mM of sodium acetate buffer solution (pH 5.0), 0.1% of NP-40 (of the firm Sigma), 25 μM [N-methyl-^3H]-sphingomyelin (0.006 μCi) and various concentrations of the substance, and the mixture was filled up to a total volume of 50 μl. After the reaction at 37° C. for 30 minutes, 200 μl of chloroform/methanol mixture (1/2 volume ratio) was added to the reaction mixture to separate the reaction product [^3H]-phosphocholine from the starting material [^3H]-sphingomyelin. The supernatant layer was taken up into a 50 μl vial. The amount of [^3H]-phosphocholine was quantitatively determined by a liquid scintillation counter to estimate the acid sphingomyelinase activity.

Another data set is described as follows: Solubility in solvents. It is filed as physicochemical. The conditions noted are these: in methanol, benzene, chloroform and ethyl acetate.
Data set [4] in a line: Acidic or alkaline nature. It is filed as physicochemical.

Converted amounts (≈) assume the structure as drawn.

As to `CCC(C)CC(C)CC(C)C(OC1OC(CO)C(O)C(O)C1O)C(C)C=C(C)C(O)C(C)C=C(C)C(O)C(C)C=C(C)C(=O)OCC(O)C(O)C(O)CO` (stereo not shown) [KF-1040 substance A], in data set [1], the “drug concentration corresponding to 50% inhibition of diacylglycerol:acyltransferase” value stood at 16 µg/mL. The IC50 in data set [2] was 10 mg/L (≈ 12.9 µM); in data set [3], 61.8 µM. In addition, the Solubility in solvents entry in “Solubility in solvents” was “solule in methanol, benzene, chloroform”. Also, the “Acidic or alkaline nature” value in data set [4] is recorded as “neutral”.
`CCC(C)CC(C)CC(C)C(OC1OC(COC(C)=O)C(O)C(O)C1O)C(C)C=C(C)C(O)C(C)C=C(C)C(O)C(C)C=C(C)C(=O)OCC(O)C(O)C(O)CO` (stereo not shown) [KF-1040 substance B]: the “drug concentration corresponding to 50% inhibition of diacylglycerol:acyltransferase” value in data set [1] was 9.0 µg/mL. For the same molecule, the values for the IC50 in data set [2] and in data set [3] were 10 mg/L (≈ 12.2 µM) and 29.3 µM, respectively. In addition, the Solubility in solvents entry in the data set “Solubility in solvents” is “soluble in methanol, benzene, chloroform”. Further, the “Acidic or alkaline nature” value in data set [4] is reported as “neutral”.

The values above are taken from patent US6432682B1, “Substances KF-1040 and process for producing of the same” (The Kitasato Institute, priority 2000, dated 2002).
